Laboratory results as given in publication PMC10562414, “GLP-1R signaling neighborhoods associate with the susceptibility to adverse drug reactions of incretin mimetics” (Nature Communications, 2023).

Test system: GLP-1R-expressing HEK293 cells (phosphoproteome)
Experiment: Phosphoproteomics time course (5, 15, 30, 60 min) in GLP-1R-expressing cells
Assay type: cell-based, human
Description: P values were calculated by a two-sided unpaired t-test.
HEK293 cells (350,000 cells/mL) were transfected in suspension using 3 μg of linear PEI (MW 25,000) per 1 μg of plasmid DNA and seeded onto poly-D-lysine-coated 60 mm dishes at a density of 1,750,000 cells per dish. After a 24-h incubation, cells were washed twice with PBS and placed in starvation media (DMEM with penicillin/streptomycin). After a 48-h incubation, cells were washed twice with HBSS and maintained in the same buffer. […] Cell extracts were prepared as previously described[64]–[66]. In short, 200 μL of the lysis buffer preheated at 95 °C (4% sodium dodecyl sulfate in 50 mM Tris adjusted to pH 8.5) was added to the cells. The samples were then denatured at 95 °C for 10 min, placed on ice and then sonicated using a probe sonicator (3 sec on, 3 sec off pulse, 1 min, 30% amplitude) (Branson). Lysate protein concentration was determined using the Pierce bicinchoninic acid assay kit (Thermo Fisher Scientific) according to the manufacturer’s instructions. The lysates were reduced using 5 mM dithiothreitol for 1 h at room temperature and alkylated using 15 mM iodoacetamide for 1 h at room temperature in the dark. Proteins were precipitated and digested on beads using MagReSyn Amine magnetic beads (ReSyn Biosciences) according to the manufacturer’s instructions. Protein digestion was conducted overnight at 37 °C with lysyl endopeptidase (LysC, Wako) (1:150 LysC/protein, w/w) and trypsin (1:300 trypsin/protein, w/w). 20% TFA, 2 M glycolic acid in 80% ACN were added to the samples at a 1:1 ratio for phosphopeptide enrichment using MagReSyn TiO2 magnetic beads (ReSyn Biosciences) according to the manufacturer’s instructions. The enriched phosphopeptides were dried overnight in a SpeedVac, resuspended into 5% formic acid (FA), desalted using StageTip (Thermo Fisher Scientific) according to the manufacturer’s instructions and dried in a SpeedVac. The experiment was performed in biological triplicates.
All parameters and settings regarding the acquisition of the proteomics data can be found in Supplementary Data 11, 12. For data acquisition, the instrument was set to peptide mode, with a trapping pressure set as low (2mTorr). An EASY-Spray Source (Thermo Fisher Scientific) was used and the column temperature was maintained with the integrated, temperature-controlled heater at 55 °C throughout the experiment. For the data presented in Fig. 5d, the column was heated at 50 °C following the manufacturer’s instructions (IonOpticks).
Acquired raw files were converted to mzML format by MSConvert (version 3.0.21258)[67] applying peak picking of the mass spectra with the vendor-provided algorithm (Thermo Fisher Scientific). The mzML files were analyzed using the FragPipe GUI v18 for both library and DIA search. […] Trypsin with up to 2 missed cleavages was set as digestion enzyme, oxidation of methionine, acetylation of the N-terminus and phosphorylation on serine, threonine and tyrosine (maximal occurrence was set to three) were set as variable modifications. Carbamidomethylation of cysteine residues was set as a fixed modification. Peptide length was restricted to 7 to 50 amino acids, and 500 to 5000 Da. The precursor tolerance was set to ±20 ppm, fragment mass tolerance to 20 ppm and MSBooster was enabled. The resulting peptide-spectrum matches were adjusted to a 1% false discovery rate with Percolator[69] as part of the Philosopher toolkit (v4.4)[70] and converted to a spectra library. DIA files were analyzed by DIA-NN 1.8.1[71], [72] using the previously generated library and monitor-command mode. Peptide quantification was performed based on the fragment elution profiles from the MS2 level (area under the curve).
All further data processing was performed in R (version 4.2.1). Only phosphopeptides with a localization score of at least 0.75 were considered for further analysis. […]

[1] = 15min, relative to time-matched vehicle condition, p.value […], passed.all.criteria 0
[2] = 60min, relative to time-matched vehicle condition, p.value […], passed.all.criteria 0

N#Cc1ccc(COc2cccc(C3CCN(Cc4nc5ccc(C(=O)O)cc5n4C[C@@H]4CCO4)CC3)n2)c(F)c1 [Danuglipron]
regulation of RAB1B and α-synuclein phosphorylation, in words (1 μM): significantly regulated by danuglipron | number of phosphopeptides overlapping between danuglipron and semaglutide treatments (1 μM, 30 min): 8 | number of significantly altered phosphopeptides (1 μM, 30 min, drug-specific, vs vehicle): 220 | Normalized phosphoproteomics data, ESYT2 S691 (A0FGR8) (5min, repA): 19.6049 | Normalized phosphoproteomics data, HMX3 S60 (A6NHT5) (5min, repA): 20.3906 | Normalized phosphoproteomics data, HNRNPA1L3 Y250 (A0A2R8Y4L2) (5min, repA): 20.6785 | Normalized phosphoproteomics data, POM121C T710 (A8CG34) (5min, repA): 20.0234 | Normalized phosphoproteomics data, SBNO1 S794 (A3KN83) (5min, repA): 17.9318 | Normalized phosphoproteomics data, ESYT2 S691 (A0FGR8) (5min, repB): 19.6976 | Normalized phosphoproteomics data, HMX3 S60 (A6NHT5) (5min, repB): 20.283 | Normalized phosphoproteomics data, HNRNPA1L3 Y250 (A0A2R8Y4L2) (5min, repB): 20.3164 | Normalized phosphoproteomics data, POM121C T710 (A8CG34) (5min, repB): 20.7371 | Normalized phosphoproteomics data, SBNO1 S794 (A3KN83) (5min, repB): 18.211 | Normalized phosphoproteomics data, ESYT2 S691 (A0FGR8) (5min, repC): 21.1682 | Normalized phosphoproteomics data, HMX3 S60 (A6NHT5) (5min, repC): 19.9991 | Normalized phosphoproteomics data, HNRNPA1L3 Y250 (A0A2R8Y4L2) (5min, repC): 20.6414 | Normalized phosphoproteomics data, POM121C T710 (A8CG34) (5min, repC): 20.3991 | Normalized phosphoproteomics data, SBNO1 S794 (A3KN83) (5min, repC): 18.5685 | log2.foldchange, FOXK2 S30 (Q01167) (5min, relative to time-matched vehicle condition, p.value 0.0181801, passed.all.criteria 0): 0.5529 | log2.foldchange, EIF3J S11 (O75822) (5min, relative to time-matched vehicle condition, p.value 0.0905175, passed.all.criteria 0): -0.3791 | log2.foldchange, SCFD1 S14 (Q8WVM8) (5min, relative to time-matched vehicle condition, p.value 0.889419, passed.all.criteria 0): 0.04613 | log2.foldchange, CABLES2 T26;S27 (Q9BTV7) (5min, relative to time-matched vehicle condition, p.value 0.907346, passed.all.criteria 0): 0.07188 | log2.foldchange, POLE4 S25 (Q9NR33) (5min, relative to time-matched vehicle condition, p.value […], passed.all.criteria 0): 0.5824 | Normalized phosphoproteomics data, ESYT2 S691 (A0FGR8) (15min, repA): 18.6451 | Normalized phosphoproteomics data, HMX3 S60 (A6NHT5) (15min, repA): 20.5059 | Normalized phosphoproteomics data, HNRNPA1L3 Y250 (A0A2R8Y4L2) (15min, repA): 20.4577 | Normalized phosphoproteomics data, POM121C T710 (A8CG34) (15min, repA): 20.5017 | Normalized phosphoproteomics data, SBNO1 S794 (A3KN83) (15min, repA): 18.6084 | Normalized phosphoproteomics data, ESYT2 S691 (A0FGR8) (15min, repB): 18.4413 | Normalized phosphoproteomics data, HMX3 S60 (A6NHT5) (15min, repB): 22.3446 | Normalized phosphoproteomics data, HNRNPA1L3 Y250 (A0A2R8Y4L2) (15min, repB): 20.4067 | Normalized phosphoproteomics data, POM121C T710 (A8CG34) (15min, repB): 18.6564 | Normalized phosphoproteomics data, SBNO1 S794 (A3KN83) (15min, repB): 17.9968 | Normalized phosphoproteomics data, ESYT2 S691 (A0FGR8) (15min, repC): 20.8902 | Normalized phosphoproteomics data, HMX3 S60 (A6NHT5) (15min, repC): 20.8902 | Normalized phosphoproteomics data, HNRNPA1L3 Y250 (A0A2R8Y4L2) (15min, repC): 20.9108 | Normalized phosphoproteomics data, POM121C T710 (A8CG34) (15min, repC): 19.3031 | Normalized phosphoproteomics data, SBNO1 S794 (A3KN83) (15min, repC): 18.3915 | log2.foldchange, EIF3J S11 (O75822) (15min, relative to time-matched vehicle condition, p.value 0.0462694, passed.all.criteria 0): 0.3639 | log2.foldchange, SCFD1 S14 (Q8WVM8) (15min, relative to time-matched vehicle condition, p.value 0.844107, passed.all.criteria 0): 0.06372 | log2.foldchange, CABLES2 T26;S27 (Q9BTV7) [1]: 0.288 | log2.foldchange, FOXK2 S30 (Q01167) [1]: 0.1878 | log2.foldchange, POLE4 S25 (Q9NR33) [1]: -0.08464 | Normalized phosphoproteomics data, ESYT2 S691 (A0FGR8) (30min, repA): 21.4861 | Normalized phosphoproteomics data, HMX3 S60 (A6NHT5) (30min, repA): 20.1311 | Normalized phosphoproteomics data, HNRNPA1L3 Y250 (A0A2R8Y4L2) (30min, repA): 20.8036 | Normalized phosphoproteomics data, POM121C T710 (A8CG34) (30min, repA): 20.7324 | Normalized phosphoproteomics data, SBNO1 S794 (A3KN83) (30min, repA): 18.5741 | Normalized phosphoproteomics data, ESYT2 S691 (A0FGR8) (30min, repB): 20.3489 | Normalized phosphoproteomics data, HMX3 S60 (A6NHT5) (30min, repB): 20.2063 | Normalized phosphoproteomics data, HNRNPA1L3 Y250 (A0A2R8Y4L2) (30min, repB): 19.9638 | Normalized phosphoproteomics data, POM121C T710 (A8CG34) (30min, repB): 20.3008 | Normalized phosphoproteomics data, SBNO1 S794 (A3KN83) (30min, repB): 18.1584 | Normalized phosphoproteomics data, ESYT2 S691 (A0FGR8) (30min, repC): 19.608 | Normalized phosphoproteomics data, HMX3 S60 (A6NHT5) (30min, repC): 21.342 | Normalized phosphoproteomics data, HNRNPA1L3 Y250 (A0A2R8Y4L2) (30min, repC): 21.4798 | Normalized phosphoproteomics data, POM121C T710 (A8CG34) (30min, repC): 19.571 | Normalized phosphoproteomics data, SBNO1 S794 (A3KN83) (30min, repC): 18.2269 | log2.foldchange, POLE4 S25 (Q9NR33) (30min, relative to time-matched vehicle condition, p.value 0.0332159, passed.all.criteria 0): 0.4522 | log2.foldchange, CABLES2 T26;S27 (Q9BTV7) (30min, relative to time-matched vehicle condition, p.value 0.0661459, passed.all.criteria 0): -0.4521 | log2.foldchange, TRAF2 T7;S11 (Q12933) (30min, relative to time-matched vehicle condition, p.value 0.177246, passed.all.criteria 0): 1.124 | log2.foldchange, FOXK2 T13 (Q01167) (30min, relative to time-matched vehicle condition, p.value 0.184134, passed.all.criteria 0): -0.3505 | log2.foldchange, SCFD1 S14 (Q8WVM8) (30min, relative to time-matched vehicle condition, p.value […], passed.all.criteria 0): -0.2911 | Normalized phosphoproteomics data, ESYT2 S691 (A0FGR8) (60min, repA): 20.822 | Normalized phosphoproteomics data, HMX3 S60 (A6NHT5) (60min, repA): 21.3332 | Normalized phosphoproteomics data, HNRNPA1L3 Y250 (A0A2R8Y4L2) (60min, repA): 20.6441 | Normalized phosphoproteomics data, POM121C T710 (A8CG34) (60min, repA): 20.5636 | Normalized phosphoproteomics data, SBNO1 S794 (A3KN83) (60min, repA): 19.2753 | Normalized phosphoproteomics data, ESYT2 S691 (A0FGR8) (60min, repB): 21.3269 | Normalized phosphoproteomics data, HMX3 S60 (A6NHT5) (60min, repB): 22.1586 | Normalized phosphoproteomics data, HNRNPA1L3 Y250 (A0A2R8Y4L2) (60min, repB): 20.7268 | Normalized phosphoproteomics data, POM121C T710 (A8CG34) (60min, repB): 20.6117 | Normalized phosphoproteomics data, SBNO1 S794 (A3KN83) (60min, repB): 18.9035 | Normalized phosphoproteomics data, ESYT2 S691 (A0FGR8) (60min, repC): 21.6663 | Normalized phosphoproteomics data, HMX3 S60 (A6NHT5) (60min, repC): 20.1861 | Normalized phosphoproteomics data, HNRNPA1L3 Y250 (A0A2R8Y4L2) (60min, repC): 20.5504 | Normalized phosphoproteomics data, POM121C T710 (A8CG34) (60min, repC): 19.5289 | Normalized phosphoproteomics data, SBNO1 S794 (A3KN83) (60min, repC): 18.62 | log2.foldchange, POLE4 S25 (Q9NR33) (60min, relative to time-matched vehicle condition, p.value 0.629383, passed.all.criteria 0): 0.05873 | log2.foldchange, SCFD1 S14 (Q8WVM8) (60min, relative to time-matched vehicle condition, p.value 0.819487, passed.all.criteria 0): -0.06624 | log2.foldchange, CABLES2 T26;S27 (Q9BTV7) [2]: -0.3341 | log2.foldchange, EIF3J S11 (O75822) [2]: -0.413 | log2.foldchange, TRAF2 T7;S11 (Q12933) [2]: 0.4682
